Assays:
CYP2C19 = CYP2C19 (Homo sapiens, UniProt P33261); assay: CYP inhibition in human liver microsomes; conditions: human
CYP2C8 = biological target: T1, CYP2C8 (Homo sapiens, UniProt P10632); assay: CYP inhibition in human liver microsomes; conditions: human
T1 sequence (P10632 1-490): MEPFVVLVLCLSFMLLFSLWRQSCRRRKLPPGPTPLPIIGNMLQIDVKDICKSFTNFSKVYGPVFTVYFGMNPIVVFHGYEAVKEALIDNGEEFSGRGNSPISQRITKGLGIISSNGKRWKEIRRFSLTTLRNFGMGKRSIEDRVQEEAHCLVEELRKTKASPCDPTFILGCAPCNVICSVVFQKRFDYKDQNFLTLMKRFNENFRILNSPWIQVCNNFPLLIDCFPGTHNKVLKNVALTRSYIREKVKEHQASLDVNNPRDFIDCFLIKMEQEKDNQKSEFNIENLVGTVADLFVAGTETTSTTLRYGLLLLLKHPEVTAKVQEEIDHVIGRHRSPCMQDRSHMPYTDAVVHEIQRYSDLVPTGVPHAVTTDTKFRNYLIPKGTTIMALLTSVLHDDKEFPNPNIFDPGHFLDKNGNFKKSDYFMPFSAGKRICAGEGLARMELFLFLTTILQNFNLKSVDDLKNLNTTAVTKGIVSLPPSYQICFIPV

CYP2D6 = CYP2D6 (Homo sapiens, UniProt P10635); assay: CYP inhibition in human liver microsomes; conditions: human
CYP1A2 = biological target: T2, CYP1A2 (Homo sapiens, UniProt P05177); assay: CYP inhibition in human liver microsomes; conditions: human
T2 sequence (P05177 1-516): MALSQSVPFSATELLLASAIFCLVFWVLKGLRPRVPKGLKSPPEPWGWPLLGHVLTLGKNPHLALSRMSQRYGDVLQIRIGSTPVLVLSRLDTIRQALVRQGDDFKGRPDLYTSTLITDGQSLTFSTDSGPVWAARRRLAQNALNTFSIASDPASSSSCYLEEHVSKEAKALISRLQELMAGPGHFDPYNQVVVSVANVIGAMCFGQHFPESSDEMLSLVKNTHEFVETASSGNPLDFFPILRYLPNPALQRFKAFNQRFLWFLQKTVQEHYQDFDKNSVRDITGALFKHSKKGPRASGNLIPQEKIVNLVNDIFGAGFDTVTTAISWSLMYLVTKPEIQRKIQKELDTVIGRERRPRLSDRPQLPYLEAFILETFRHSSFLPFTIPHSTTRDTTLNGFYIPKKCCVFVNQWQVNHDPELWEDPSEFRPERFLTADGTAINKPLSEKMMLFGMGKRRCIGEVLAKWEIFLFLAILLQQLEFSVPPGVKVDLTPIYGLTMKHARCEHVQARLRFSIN

CYP2C9 = CYP2C9 (Homo sapiens, UniProt P11712); assay: CYP inhibition in human liver microsomes; conditions: human
CYP2B6 = biological target: T3, CYP2B6 (Homo sapiens, UniProt P20813); assay: CYP inhibition in human liver microsomes; conditions: human
T3 sequence (P20813 1-491): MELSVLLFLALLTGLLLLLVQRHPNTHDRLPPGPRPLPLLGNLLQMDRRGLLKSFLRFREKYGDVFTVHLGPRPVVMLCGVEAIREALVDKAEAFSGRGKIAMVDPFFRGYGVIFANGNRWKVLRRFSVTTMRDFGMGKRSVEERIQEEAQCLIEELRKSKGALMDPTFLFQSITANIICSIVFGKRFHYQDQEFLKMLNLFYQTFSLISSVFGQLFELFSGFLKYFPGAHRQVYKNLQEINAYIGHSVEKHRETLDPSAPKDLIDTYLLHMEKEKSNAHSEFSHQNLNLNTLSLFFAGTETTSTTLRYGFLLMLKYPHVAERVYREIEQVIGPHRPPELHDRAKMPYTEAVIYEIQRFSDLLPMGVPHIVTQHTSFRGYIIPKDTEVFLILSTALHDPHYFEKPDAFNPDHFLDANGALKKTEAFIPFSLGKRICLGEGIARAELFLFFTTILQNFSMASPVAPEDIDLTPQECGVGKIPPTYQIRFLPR

CYP3A4 = CYP3A4 (Homo sapiens, UniProt P08684); assay: CYP inhibition in human liver microsomes
OAT3 = biological target: T4, OAT3 (Homo sapiens, UniProt Q8TCC7); assay: Transporter mediated assay (substrate/inhibitor), MDCK-II cells; assay type: in vitro ADME; conditions: human; OAT3, No BSA, 100 μM
T4 construct: expressed in transfected cells; host or cells: MDCK-II cells
T4 sequence (Q8TCC7 1-542): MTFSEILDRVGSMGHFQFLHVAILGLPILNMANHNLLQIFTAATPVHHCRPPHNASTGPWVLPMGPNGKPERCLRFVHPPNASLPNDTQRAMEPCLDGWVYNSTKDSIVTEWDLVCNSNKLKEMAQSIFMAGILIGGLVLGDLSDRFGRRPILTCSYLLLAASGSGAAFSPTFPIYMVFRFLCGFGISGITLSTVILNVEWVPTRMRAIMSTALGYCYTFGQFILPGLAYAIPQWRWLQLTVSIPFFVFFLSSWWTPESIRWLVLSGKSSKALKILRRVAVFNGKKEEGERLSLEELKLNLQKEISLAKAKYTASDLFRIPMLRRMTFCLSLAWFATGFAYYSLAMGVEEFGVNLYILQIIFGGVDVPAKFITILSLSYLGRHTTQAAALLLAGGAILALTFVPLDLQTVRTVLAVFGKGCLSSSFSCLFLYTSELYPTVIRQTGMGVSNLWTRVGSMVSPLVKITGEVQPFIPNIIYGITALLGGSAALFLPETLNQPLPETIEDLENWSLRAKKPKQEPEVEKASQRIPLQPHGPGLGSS
Experimental: (§1) The MDCK-II cells were treated to express the transporter of interest. The transport of each probe substrate was determined by radiometric detection (Fig 1 in S1 File). […] For the uptake assay, the net transporter-mediated uptake-rate (V) of the substrate by each SLC transporter was calculated as follows: Transporter–mediatedupdaterate(pmol/min/cm^2)=(Cellularaccumulationincellsexpressingthetransporter)−(Meancellularaccumulationincontrolcells)/Surfacearea×incubationtime
(§2) Fold of activity and percent inhibition were determined as follows: Foldofactivity=(Meanuptakerate)transporterexpressingcells/(Meanuptakerate)controlcells Percentinhibition=100−100×(Transport‐mediatedupdaterate)withinhibitor/(Transport‐mediatedupdaterate)vehiclecontrol

OCT2 = biological target: T5, OCT2 (Homo sapiens, UniProt O15244); assay: as above; assay type: in vitro ADME; conditions: human, polarized monolayer of MDCK-II cells expressing OCT2; OCT2, No BSA, 1000 μM
T5 construct: expressed in transfected cells; host or cells: MDCK-II cells
T5 sequence (O15244 1-555): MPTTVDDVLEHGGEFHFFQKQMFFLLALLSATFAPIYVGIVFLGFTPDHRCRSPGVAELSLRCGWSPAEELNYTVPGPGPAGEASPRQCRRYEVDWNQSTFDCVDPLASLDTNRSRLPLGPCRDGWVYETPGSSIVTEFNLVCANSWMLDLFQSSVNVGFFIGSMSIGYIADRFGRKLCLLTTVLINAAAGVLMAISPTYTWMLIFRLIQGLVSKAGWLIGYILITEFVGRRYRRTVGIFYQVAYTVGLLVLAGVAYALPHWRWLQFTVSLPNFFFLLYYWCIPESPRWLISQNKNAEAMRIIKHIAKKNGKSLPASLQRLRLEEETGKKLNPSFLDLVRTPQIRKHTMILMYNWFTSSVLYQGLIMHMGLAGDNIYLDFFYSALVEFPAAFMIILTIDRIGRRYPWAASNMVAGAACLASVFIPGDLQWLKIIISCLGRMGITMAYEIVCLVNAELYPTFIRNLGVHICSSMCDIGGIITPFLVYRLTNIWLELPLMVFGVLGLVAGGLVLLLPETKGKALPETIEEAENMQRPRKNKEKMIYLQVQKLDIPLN
Experimental: as §1, §2

P-gp = biological target: T6, P-gp (Homo sapiens, UniProt P08183); assay: as above; assay type: in vitro ADME; conditions: P-gp, substrate test, 0.1 µM
T6 construct: expressed in transfected cells; host or cells: MDCK-II cells
Experimental: The MDCK-II cells were treated to express the transporter of interest.
For BCRP and P-gp, the apparent permeability Papp and Efflux Ratio (ER) were calculated [16]. Net basal (B) to apical (A) flux (B → A) of the substrate transport (pmol/min/cm^2) by BCRP or P-gp was calculated by subtracting A → B flux from B → A flux.

OATP1B1 = biological target: T7, OATP1B1 (Homo sapiens, UniProt Q9Y6L6); assay: as above; assay type: in vitro ADME; conditions: human, polarized monolayer of MDCK-II cells expressing OATP1B1; OATP1B1, No BSA, 100 μM
T7 construct: expressed in transfected cells; host or cells: MDCK-II cells
T7 sequence (Q9Y6L6 1-691): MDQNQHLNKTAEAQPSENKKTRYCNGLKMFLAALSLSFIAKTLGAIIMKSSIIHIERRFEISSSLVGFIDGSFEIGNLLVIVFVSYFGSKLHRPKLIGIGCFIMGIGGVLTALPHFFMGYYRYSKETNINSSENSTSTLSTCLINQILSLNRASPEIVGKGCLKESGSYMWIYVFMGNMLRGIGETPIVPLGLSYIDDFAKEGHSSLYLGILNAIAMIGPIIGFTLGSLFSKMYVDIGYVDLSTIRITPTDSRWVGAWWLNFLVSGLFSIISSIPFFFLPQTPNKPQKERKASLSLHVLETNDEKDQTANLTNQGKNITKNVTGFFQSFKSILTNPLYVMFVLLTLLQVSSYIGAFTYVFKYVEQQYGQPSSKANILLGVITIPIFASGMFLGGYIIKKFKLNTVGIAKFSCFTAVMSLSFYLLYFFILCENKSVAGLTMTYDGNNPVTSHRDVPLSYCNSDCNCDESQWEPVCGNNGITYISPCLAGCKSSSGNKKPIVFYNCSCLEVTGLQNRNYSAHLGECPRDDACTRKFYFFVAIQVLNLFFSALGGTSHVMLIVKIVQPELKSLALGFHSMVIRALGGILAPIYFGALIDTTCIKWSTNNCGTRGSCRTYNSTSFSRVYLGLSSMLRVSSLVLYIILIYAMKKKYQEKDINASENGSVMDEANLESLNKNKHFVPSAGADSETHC
Experimental: as §1, §2

OATP1B3 = biological target: T8, OATP1B3 (Homo sapiens, UniProt Q9NPD5); assay: as above; assay type: in vitro ADME; conditions: human, polarized monolayer of MDCK-II cells expressing OATP1B3; OATP1B3, No BSA, 100 μM
T8 construct: expressed in transfected cells; host or cells: MDCK-II cells
T8 sequence (Q9NPD5 1-702): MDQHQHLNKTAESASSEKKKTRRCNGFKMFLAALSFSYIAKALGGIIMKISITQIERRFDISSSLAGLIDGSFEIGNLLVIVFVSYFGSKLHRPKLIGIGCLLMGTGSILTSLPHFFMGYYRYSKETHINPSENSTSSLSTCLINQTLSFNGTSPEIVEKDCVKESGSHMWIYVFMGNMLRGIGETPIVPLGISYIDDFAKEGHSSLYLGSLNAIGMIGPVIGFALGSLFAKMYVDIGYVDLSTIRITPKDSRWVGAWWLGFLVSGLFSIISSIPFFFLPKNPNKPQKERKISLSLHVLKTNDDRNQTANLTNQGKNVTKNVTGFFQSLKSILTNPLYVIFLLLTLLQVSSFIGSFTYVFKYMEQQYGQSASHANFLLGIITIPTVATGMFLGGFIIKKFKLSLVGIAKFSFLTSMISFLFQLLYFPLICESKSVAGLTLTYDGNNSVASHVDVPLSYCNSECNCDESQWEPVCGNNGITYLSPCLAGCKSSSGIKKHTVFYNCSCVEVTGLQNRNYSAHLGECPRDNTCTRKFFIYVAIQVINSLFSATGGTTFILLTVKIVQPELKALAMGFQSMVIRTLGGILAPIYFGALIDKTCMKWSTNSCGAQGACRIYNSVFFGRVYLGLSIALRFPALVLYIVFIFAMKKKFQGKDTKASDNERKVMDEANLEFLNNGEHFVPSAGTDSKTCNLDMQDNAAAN
Experimental: as §1, §2

[1] = CYP activity (% of Control) 3A4 (Midazolam), substrate midazolam
[2] = CYP activity (% of Control) 3A4 (Testosterone), substrate testosterone

Sequence of CYP2D6 (P10635 whole entry): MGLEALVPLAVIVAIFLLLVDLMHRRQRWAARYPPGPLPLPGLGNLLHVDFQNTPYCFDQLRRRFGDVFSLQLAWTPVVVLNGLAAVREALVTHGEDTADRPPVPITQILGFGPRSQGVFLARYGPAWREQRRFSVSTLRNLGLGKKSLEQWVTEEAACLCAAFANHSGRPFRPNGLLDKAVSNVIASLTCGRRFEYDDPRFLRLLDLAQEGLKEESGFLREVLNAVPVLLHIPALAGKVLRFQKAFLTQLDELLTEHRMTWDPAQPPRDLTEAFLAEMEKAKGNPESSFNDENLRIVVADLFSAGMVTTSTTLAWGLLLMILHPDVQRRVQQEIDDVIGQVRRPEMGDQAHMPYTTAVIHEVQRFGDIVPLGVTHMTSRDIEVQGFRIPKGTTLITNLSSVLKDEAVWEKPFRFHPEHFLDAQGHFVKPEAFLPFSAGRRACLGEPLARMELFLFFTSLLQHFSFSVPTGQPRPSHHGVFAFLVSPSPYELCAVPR
Sequence of CYP2C9 (P11712 whole entry): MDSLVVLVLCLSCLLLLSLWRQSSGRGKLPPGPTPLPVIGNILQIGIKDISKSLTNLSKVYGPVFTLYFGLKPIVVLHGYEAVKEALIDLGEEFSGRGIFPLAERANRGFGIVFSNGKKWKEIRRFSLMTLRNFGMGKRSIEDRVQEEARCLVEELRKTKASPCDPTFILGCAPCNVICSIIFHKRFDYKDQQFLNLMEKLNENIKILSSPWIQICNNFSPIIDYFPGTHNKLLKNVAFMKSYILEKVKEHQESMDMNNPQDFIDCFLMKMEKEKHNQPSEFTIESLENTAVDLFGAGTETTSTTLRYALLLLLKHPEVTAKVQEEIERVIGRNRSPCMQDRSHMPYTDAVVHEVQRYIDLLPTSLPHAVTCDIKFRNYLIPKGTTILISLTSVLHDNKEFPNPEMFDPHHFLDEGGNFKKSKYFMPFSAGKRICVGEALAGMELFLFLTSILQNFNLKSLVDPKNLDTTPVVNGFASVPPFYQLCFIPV
T6 sequence (P08183 whole entry): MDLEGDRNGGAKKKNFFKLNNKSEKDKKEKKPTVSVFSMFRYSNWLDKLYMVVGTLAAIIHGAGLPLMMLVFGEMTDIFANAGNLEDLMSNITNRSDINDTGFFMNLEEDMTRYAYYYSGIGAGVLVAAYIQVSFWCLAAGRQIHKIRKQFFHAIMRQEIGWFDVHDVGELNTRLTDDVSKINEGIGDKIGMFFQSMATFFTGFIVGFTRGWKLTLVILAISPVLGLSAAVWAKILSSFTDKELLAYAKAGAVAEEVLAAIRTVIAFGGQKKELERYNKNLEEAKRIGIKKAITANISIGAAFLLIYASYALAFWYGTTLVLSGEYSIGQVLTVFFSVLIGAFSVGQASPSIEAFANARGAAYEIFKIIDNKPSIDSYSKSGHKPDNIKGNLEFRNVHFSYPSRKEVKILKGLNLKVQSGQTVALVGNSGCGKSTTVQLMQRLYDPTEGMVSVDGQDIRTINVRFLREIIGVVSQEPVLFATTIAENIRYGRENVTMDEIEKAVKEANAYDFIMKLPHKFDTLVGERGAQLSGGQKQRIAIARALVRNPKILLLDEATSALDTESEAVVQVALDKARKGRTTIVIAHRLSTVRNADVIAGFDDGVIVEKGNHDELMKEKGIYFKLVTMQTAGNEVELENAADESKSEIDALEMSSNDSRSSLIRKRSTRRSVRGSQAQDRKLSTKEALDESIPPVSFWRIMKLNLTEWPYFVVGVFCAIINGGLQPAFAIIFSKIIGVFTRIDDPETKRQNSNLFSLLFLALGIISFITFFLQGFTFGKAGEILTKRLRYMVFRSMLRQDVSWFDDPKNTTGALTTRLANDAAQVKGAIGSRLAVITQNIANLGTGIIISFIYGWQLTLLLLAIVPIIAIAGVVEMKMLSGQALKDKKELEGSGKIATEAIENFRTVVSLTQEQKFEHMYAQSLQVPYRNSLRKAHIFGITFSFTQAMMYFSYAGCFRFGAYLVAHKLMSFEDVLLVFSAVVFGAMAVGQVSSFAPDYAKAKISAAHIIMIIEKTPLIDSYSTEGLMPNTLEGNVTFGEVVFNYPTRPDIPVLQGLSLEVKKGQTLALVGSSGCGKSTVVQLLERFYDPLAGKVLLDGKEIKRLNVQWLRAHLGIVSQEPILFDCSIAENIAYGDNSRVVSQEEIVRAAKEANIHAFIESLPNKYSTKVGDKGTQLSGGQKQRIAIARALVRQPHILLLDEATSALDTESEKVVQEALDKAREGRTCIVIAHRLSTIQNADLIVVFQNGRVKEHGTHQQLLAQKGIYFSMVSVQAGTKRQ
Sequence of CYP3A4 (P08684 2-503): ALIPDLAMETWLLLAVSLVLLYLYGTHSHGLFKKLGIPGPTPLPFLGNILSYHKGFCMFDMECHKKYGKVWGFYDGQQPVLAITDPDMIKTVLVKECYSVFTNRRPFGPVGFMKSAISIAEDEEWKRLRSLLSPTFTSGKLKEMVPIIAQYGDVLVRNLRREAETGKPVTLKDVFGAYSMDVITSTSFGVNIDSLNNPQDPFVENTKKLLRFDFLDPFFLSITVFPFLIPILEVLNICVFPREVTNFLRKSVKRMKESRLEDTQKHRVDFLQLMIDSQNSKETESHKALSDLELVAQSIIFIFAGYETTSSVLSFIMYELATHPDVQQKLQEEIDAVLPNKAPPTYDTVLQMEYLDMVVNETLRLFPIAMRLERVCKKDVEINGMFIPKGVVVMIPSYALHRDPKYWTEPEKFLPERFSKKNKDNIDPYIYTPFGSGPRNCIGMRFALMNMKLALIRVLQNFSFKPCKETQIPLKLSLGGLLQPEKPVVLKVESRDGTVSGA
Sequence of CYP2C19 (P33261 whole entry): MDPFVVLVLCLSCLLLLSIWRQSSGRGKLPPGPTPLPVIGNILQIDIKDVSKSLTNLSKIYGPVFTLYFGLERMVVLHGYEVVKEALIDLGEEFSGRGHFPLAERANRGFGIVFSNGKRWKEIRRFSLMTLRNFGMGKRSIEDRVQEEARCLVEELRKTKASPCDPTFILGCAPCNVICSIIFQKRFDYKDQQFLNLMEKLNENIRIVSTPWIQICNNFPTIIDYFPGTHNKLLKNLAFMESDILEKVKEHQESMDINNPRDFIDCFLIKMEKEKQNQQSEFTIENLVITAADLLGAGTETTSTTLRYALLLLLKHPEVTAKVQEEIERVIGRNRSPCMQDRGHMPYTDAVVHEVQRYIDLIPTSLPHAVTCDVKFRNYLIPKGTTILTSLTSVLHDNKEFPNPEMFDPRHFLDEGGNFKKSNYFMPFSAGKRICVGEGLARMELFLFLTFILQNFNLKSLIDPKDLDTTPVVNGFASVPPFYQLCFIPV

## S=P(N1CC1)(N1CC1)N1CC1 [ThioTEPA]
CYP2C19; microsomes
  activity at 20 min, 10 µM: 108 ± 4.3%
CYP2C8; microsomes
  activity at 20 min, 10 µM: 96.8 ± 4.4%
CYP2D6; microsomes
  activity at 20 min, 10 µM: 90.7 ± 2%
CYP1A2; microsomes
  activity at 20 min, 10 µM: 93.8 ± 4.3%
CYP2C9; microsomes
  activity at 20 min, 10 µM: 92.9 ± 1.5%
CYP2B6; microsomes
  activity at 20 min, 10 µM: 52 ± 0.1%
CYP3A4; [1]
  activity at 20 min, 10 µM: 92.6 ± 2.2%
CYP3A4; [2]
  activity at 20 min, 10 µM: 91.4 ± 1.3%

## C=C(C)[C@@H]1CCC2=CC(=O)C[C@@H](C)[C@]2(C)C1 [Nootkatone]
CYP2C19; microsomes
  activity at 20 min, 30 µM: 57.3 ± 5.7%
CYP2C8; microsomes
  activity at 20 min, 30 µM: 78.8 ± 12.5%
CYP2D6; microsomes
  activity at 20 min, 30 µM: 91.9 ± 8.4%
CYP1A2; microsomes
  activity at 20 min, 30 µM: 91.3 ± 4.8%
CYP2C9; microsomes
  activity at 20 min, 30 µM: 84.6 ± 8.5%
CYP2B6; microsomes
  activity at 20 min, 30 µM: 23.8 ± 2.7%
CYP3A4; [1]
  activity at 20 min, 30 µM: 84.5 ± 4%
CYP3A4; [2]
  activity at 20 min, 30 µM: 79.4 ± 5.4%

## CCCN(CCC)S(=O)(=O)c1ccc(C(=O)O)cc1 [probenecid, reference compound]
OAT3
  inhibition at 100 µM: 95.3 ± 0.73%

## C=C[C@H]1C[N@@]2CC[C@H]1C[C@@H]2[C@@H](O)c1ccnc2ccc(OC)cc12 [quinidine, reference compound]
CYP2C19; human liver microsomes, probe mephenytoin
  activity at 20 min, 2 µM: 97.7 ± 2.3%
CYP2C8; human liver microsomes, probe paclitaxel
  activity at 20 min, 2 µM: 71.3 ± 2.2%
CYP2D6; human liver microsomes, probe bufuralol
  activity at 20 min, 2 µM: 17.3 ± 0.2%
CYP1A2; human liver microsomes, probe phenacetin
  activity at 20 min, 2 µM: 88.3 ± 1%
OCT2
  inhibition at 1000 µM: 100 ± 0.21%
CYP2C9; human liver microsomes, probe diclofenac
  activity at 20 min, 2 µM: 82.7 ± 1.1%
CYP2B6; human liver microsomes, probe bupropion
  activity at 20 min, 2 µM: 91.6 ± 2.4%
P-gp
  Vectorial Net Transport (B->A) - (A->B): 0.52 ± 0.03 pmoles/min/cm^2
P-gp; human, MDCK-MDR1
  Papp A→B at 0.1 µM: 2.62 ± 0.42 ×10⁻⁶ cm/s
  Papp B→A at 0.1 µM: 80.7 ± 4.23 ×10⁻⁶ cm/s

## CO[C@H]1/C=C/O[C@@]2(C)Oc3c(C)c(O)c4c(O)c(c(/C=N/N5CCN(C)CC5)c(O)c4c3C2=O)NC(=O)/C(C)=C\C=C\[C@H](C)[C@H](O)[C@@H](C)[C@@H](O)[C@@H](C)[C@H](OC(C)=O)[C@@H]1C [Rifampicin, reference compound]
OATP1B1
  inhibition at 100 µM: 98.3 ± 1.37%
OATP1B3
  inhibition at 100 µM: 99.2 ± 0.26%
